In ChEMBL document CHEMBL3046339, “Insecticidal activity of Maytenus species (Celastraceae) nortriterpene quinone methides against codling moth, Cydia pomonella (L.) (Lepidoptera: tortricidae)” (2000):

Columns and labels:
Assay type in all cases: functional
Cydia pomonella [1] = experiment: Antifeedant activity against Cydia pomonella (codling moth) at 12 mg/kg diet topically measured after 5 days of continuous exposure (reference value: 6.7 +/- 6.7%)
Cydia pomonella [2] = experiment: Antifeedant activity against Cydia pomonella (codling moth) at 8 mg/kg diet topically measured after 5 days of continuous exposure (reference value: 6.7 +/- 6.7%)
Cydia pomonella [3] = experiment: Insecticidal activity against Cydia pomonella (codling moth) at 1 mg/kg assessed as growth regulation measured as number of head capsules of larvae after 5 days of continuous exposure (reference value: 0.2 +/- 0.2%)
Cydia pomonella [4] = experiment: Insecticidal activity against Cydia pomonella (codling moth) assessed as mortality at 6 mg/kg diet topically measured after 10 days of continuous exposure (reference value: 3.3 +/- 3.3%); details: topical, 240 h
Cydia pomonella [5] = experiment: Antifeedant activity against Cydia pomonella (codling moth) at 1 mg/kg diet topically measured after 10 days of continuous exposure (reference value: 6.7 +/- 6.7%)
Cydia pomonella [6] = experiment: Antifeedant activity against Cydia pomonella (codling moth) at 18 mg/kg diet topically measured after 10 days of continuous exposure (reference value: 6.7 +/- 6.7%)
Cydia pomonella [7] = experiment: Insecticidal activity against Cydia pomonella (codling moth) assessed as mortality at 4 mg/kg diet topically measured after 10 days of continuous exposure (reference value: 3.3 +/- 3.3%); details: topical, 240 h
Cydia pomonella [8] = experiment: Antifeedant activity against Cydia pomonella (codling moth) at 20 mg/kg diet topically measured after 10 days of continuous exposure (reference value: 6.7 +/- 6.7%)
Cydia pomonella [9] = experiment: Insecticidal activity against Cydia pomonella (codling moth) assessed as mortality at 1 mg/kg diet topically measured after 10 days of continuous exposure (reference value: 3.3 +/- 3.3%); details: topical, 240 h
Cydia pomonella [10] = experiment: Insecticidal activity against Cydia pomonella (codling moth) at 16 mg/kg assessed as growth regulation measured as number of head capsules of larvae after 5 days of continuous exposure (reference value: 0.2 +/- 0.2%)
Cydia pomonella [11] = experiment: Antifeedant activity against Cydia pomonella (codling moth) at 12 mg/kg diet topically measured after 10 days of continuous exposure (reference value: 6.7 +/- 6.7%)
Cydia pomonella [12] = experiment: Insecticidal activity against Cydia pomonella (codling moth) assessed as mortality at 2 mg/kg diet topically measured after 10 days of continuous exposure (reference value: 3.3 +/- 3.3%); details: topical, 240 h
Cydia pomonella [13] = experiment: Antifeedant activity against Cydia pomonella (codling moth) at 18 mg/kg diet topically measured after 5 days of continuous exposure (reference value: 6.7 +/- 6.7%)
Cydia pomonella [14] = experiment: Insecticidal activity against Cydia pomonella (codling moth) assessed as mortality at 16 mg/kg diet topically measured after 10 days of continuous exposure (reference value: 3.3 +/- 3.3%); details: topical, 240 h
Cydia pomonella [15] = experiment: Insecticidal activity against Cydia pomonella (codling moth) at 18 mg/kg assessed as growth regulation measured as number of head capsules of larvae after 5 days of continuous exposure (reference value: 0.2 +/- 0.2%)
Cydia pomonella [16] = experiment: Insecticidal activity against Cydia pomonella (codling moth) assessed as mortality at 6 mg/kg diet topically measured after 5 days of continuous exposure (reference value: 0%); details: topical, 120 h
Cydia pomonella [17] = experiment: Insecticidal activity against Cydia pomonella (codling moth) at 8 mg/kg assessed as growth regulation measured as number of head capsules of larvae after 10 days of continuous exposure Rvb = (1.5 +/- 0.2%)
Cydia pomonella [18] = experiment: Insecticidal activity against Cydia pomonella (codling moth) at 6 mg/kg assessed as growth regulation measured as number of head capsules of larvae after 5 days of continuous exposure (reference value: 0.2 +/- 0.2%)
Cydia pomonella [19] = experiment: Insecticidal activity against Cydia pomonella (codling moth) assessed as mortality at 20 mg/kg diet topically measured after 5 days of continuous exposure (reference value: 0%); details: topical, 120 h
Cydia pomonella [20] = experiment: Insecticidal activity against Cydia pomonella (codling moth) assessed as mortality at 12 mg/kg diet topically measured after 5 days of continuous exposure (reference value: 0%); details: topical, 120 h

What does the source list for `CC1=C(O)C(=O)C=C2C1=CC=C1[C@@]2(C)CC[C@@]2(C)[C@@H]3C[C@](C)(O)C(=O)C[C@]3(C)CC[C@]12C` [20ALPHA-HYDROXYTINGENONE]?
Activity (Cydia pomonella [1]): 96.7%; Activity (Cydia pomonella [2]): 100%; Activity (Cydia pomonella [3]): 0.1; mortality at 6 mg/kg (Cydia pomonella [4]): 23.3%; Activity (Cydia pomonella [5]): 6.7%; Activity (Cydia pomonella [6]): 100%; mortality at 4 mg/kg (Cydia pomonella [7]): 16.7%; Activity (Cydia pomonella [8]): 100%; mortality at 1 mg/kg (Cydia pomonella [9]): 3.3%; Activity (Cydia pomonella [10]): 0; Activity (Cydia pomonella [11]): 90%; mortality at 2 mg/kg (Cydia pomonella [12]): 0%; Activity (Cydia pomonella [13]): 100%; mortality at 16 mg/kg (Cydia pomonella [14]): 93.3%; Activity (Cydia pomonella [15]): 0; mortality at 6 mg/kg (Cydia pomonella [16]): 10%; Activity (Cydia pomonella [17]): 0.2; Activity (Cydia pomonella [18]): 0; mortality at 20 mg/kg (Cydia pomonella [19]): 100%; mortality at 12 mg/kg (Cydia pomonella [20]): 53.3%
